# Experimental data published in publication PMC7004250 (Cell chemical biology, 2019).
# Legend:
# [1] = test system: H3K27me3 in HeLa cells; assay: Western blot H3K27me3 levels in HeLa cells; assay type: cell-based, human; details: for H3K27me3 reduced: 10 μM, after 72 hours
# [2] = target: T1, EED in HeLa cells (Homo sapiens, UniProt O75530); assay: Western blot EED degradation in HeLa cells; assay type: cell-based; details: for EED protein levels: 10 μM, 24 to 72 hrs
# [3] = DB cell viability; assay type: cell-based; details: human, DB cells
# [4] = test system: EED; details: read-out: reported IC50 (EED); ref Huang et al., 2017; cited from earlier work
# [5] = test system: EZH2 in HeLa cells; assay: Western blot EZH2 degradation in HeLa cells; assay type: cell-based, human; details: for EZH2 protein levels: 10 μM, 24 to 72 hrs
# [6] = target: T1, EED in HeLa cells; assay: Jess ProteinSimple analysis of EED levels; assay type: cell-based; details: 5 μM, 4, 24 and 48 hrs, decrease stated at 24 hrs
# [7] = test system: EZH2 in HeLa cells; assay: Jess ProteinSimple analysis of EZH2 levels; assay type: cell-based, human; details: 5 μM, 4, 24 and 48 hrs, decrease stated at 24 hrs
# [8] = target: 6XHis-tagged recombinant EED (residues 1 – 441) (Homo sapiens, UniProt O75530); assay: TR-FRET EED binding assay; details: TR-FRET EED IC50 relative to EED226
# 6XHis-tagged recombinant EED (residues 1 – 441), sequence (O75530 whole entry, the tested form may be a part): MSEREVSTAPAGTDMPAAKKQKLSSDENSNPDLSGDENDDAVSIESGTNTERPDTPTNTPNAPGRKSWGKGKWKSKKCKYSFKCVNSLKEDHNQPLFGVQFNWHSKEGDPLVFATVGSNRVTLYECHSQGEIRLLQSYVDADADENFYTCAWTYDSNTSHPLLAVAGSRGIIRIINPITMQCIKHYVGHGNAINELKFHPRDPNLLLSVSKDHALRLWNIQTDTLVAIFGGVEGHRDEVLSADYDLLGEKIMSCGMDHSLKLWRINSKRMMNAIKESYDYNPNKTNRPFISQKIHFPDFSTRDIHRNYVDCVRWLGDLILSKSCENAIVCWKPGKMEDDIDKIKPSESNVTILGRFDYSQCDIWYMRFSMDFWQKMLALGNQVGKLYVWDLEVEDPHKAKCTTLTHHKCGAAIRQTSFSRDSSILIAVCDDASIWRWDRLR
# [9] = test system: SUZ12 in HeLa cells; assay: Western blot SUZ12 degradation in HeLa cells; assay type: cell-based, human
# [10] = target: EED in DB cells (EZH2^Y641N) (Homo sapiens, UniProt O75530); assay: Western blot EED degradation in DB cells; assay type: cell-based
# EED in DB cells (EZH2^Y641N), sequence (O75530 2-441 limits assumed, stated change not applied): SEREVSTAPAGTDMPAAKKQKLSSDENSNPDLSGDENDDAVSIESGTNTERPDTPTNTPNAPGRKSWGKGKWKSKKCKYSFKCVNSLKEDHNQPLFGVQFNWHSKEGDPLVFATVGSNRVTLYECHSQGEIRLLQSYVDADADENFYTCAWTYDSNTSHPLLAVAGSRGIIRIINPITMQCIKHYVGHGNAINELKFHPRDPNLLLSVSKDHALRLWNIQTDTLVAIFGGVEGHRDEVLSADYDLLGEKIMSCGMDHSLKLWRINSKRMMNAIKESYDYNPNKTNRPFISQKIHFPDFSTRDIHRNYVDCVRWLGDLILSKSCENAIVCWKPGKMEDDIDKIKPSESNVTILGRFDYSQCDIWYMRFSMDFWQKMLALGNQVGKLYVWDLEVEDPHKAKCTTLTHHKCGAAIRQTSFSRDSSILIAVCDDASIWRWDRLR
# [11] = test system: DB cells; assay: DB cell proliferation; assay type: cell-based, human; details: up to 12 days, 3 μM (Figure 6A)
# [12] = test system: H3K27me3 in DB cells (EZH2^Y641N); assay: Western blot H3K27me3 levels in DB cells; assay type: cell-based, human; details: 10 μM, after 72 hours
# [13] = target: PRC2 subunits in Pfeiffer cells (EZH2^A677G) (Homo sapiens, UniProt O75530); assay: PRC2 degradation in Pfeiffer cells; assay type: cell-based; details: Figure S6
# PRC2 subunits in Pfeiffer cells (EZH2^A677G), sequence (O75530 whole entry, stated change not applied): as the sequence (O75530 whole entry, the tested form may be a part) above
# PRC2 subunits in Pfeiffer cells (EZH2^A677G), sequence (Q15910 whole entry A677G partner): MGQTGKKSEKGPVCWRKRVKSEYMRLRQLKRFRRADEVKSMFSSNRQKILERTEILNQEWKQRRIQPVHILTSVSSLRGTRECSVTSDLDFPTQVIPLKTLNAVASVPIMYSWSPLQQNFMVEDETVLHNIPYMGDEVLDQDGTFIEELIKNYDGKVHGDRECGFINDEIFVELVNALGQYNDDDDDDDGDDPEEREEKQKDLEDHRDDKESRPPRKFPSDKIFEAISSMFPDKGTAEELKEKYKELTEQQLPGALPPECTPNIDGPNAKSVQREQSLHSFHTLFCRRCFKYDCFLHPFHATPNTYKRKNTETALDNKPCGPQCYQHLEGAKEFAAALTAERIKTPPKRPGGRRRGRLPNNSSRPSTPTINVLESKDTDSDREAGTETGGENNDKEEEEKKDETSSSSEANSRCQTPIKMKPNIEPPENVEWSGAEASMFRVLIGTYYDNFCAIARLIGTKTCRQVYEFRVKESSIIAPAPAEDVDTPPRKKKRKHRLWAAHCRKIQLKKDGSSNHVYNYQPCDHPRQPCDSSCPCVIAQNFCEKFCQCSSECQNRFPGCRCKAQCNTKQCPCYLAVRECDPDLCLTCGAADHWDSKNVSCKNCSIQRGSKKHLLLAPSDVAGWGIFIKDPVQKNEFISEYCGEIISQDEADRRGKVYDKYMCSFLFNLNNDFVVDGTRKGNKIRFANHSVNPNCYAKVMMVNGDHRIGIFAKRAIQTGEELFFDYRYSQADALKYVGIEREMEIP
# PRC2 subunits in Pfeiffer cells (EZH2^A677G), sequence (Q15022 whole entry partner): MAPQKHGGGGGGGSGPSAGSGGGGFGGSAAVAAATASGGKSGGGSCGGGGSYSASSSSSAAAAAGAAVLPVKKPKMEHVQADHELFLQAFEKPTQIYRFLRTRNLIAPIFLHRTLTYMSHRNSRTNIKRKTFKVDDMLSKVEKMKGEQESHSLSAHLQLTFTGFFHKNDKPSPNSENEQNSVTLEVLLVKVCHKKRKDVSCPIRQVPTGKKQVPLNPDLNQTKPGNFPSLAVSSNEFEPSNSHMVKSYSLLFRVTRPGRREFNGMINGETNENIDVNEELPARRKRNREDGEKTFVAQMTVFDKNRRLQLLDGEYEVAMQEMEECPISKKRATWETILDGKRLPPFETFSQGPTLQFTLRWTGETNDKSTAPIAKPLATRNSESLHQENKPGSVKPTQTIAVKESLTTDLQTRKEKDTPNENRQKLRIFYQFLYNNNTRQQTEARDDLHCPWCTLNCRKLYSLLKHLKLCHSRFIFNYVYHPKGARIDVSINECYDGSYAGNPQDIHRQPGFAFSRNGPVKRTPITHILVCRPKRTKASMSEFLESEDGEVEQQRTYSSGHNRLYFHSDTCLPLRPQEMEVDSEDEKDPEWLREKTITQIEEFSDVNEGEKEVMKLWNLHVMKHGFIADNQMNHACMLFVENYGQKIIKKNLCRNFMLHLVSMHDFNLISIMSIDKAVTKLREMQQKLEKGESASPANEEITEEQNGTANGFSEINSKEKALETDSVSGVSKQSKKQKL
# [14] = test system: SUZ12 in DB cells (EZH2^Y641N); assay: Western blot SUZ12 degradation in DB cells; assay type: cell-based, human
# [15] = test system: Pfeiffer cells; assay: Pfeiffer cell proliferation; assay type: cell-based, human; details: up to 12 days, 3 μM (Figure 6B)
# [16] = test system: SUZ12 in HeLa cells; assay: Global proteomics; assay type: cell-based, human; details: 10 μM, 24 hrs, TMT proteomics
# [17] = test system: HeLa cells; assay: Cellular toxicity in HeLa cells; assay type: cell-based, human; details: concentrations up to 30 μM
# [18] = test system: EZH2/EZH2^Y641N in DB cells; assay: Western blot EZH2 degradation in DB cells; assay type: cell-based, human
# T1 sequence (O75530 whole entry): as the sequence (O75530 whole entry, the tested form may be a part) above
EED levels (Jess) [6],loss in potency compared to EED226 [8] [fold],Structure (SMILES),H3K27me3 reduced [1] [%],EED protein levels ([2]; HeLa cells),"viability at 12 days, 3 μM [3] [%]",EZH2 protein levels [5],EZH2 levels (Jess) [7],other results
–,–,"CS(=O)(=O)c1ccc(-c2cnc(NCc3ccco3)n3cnnc23)cc1 [EED226, reference compound]",52,had no effect,67,had no effect,–,IC50 [4]: 22 nM
–,–,"CCCc1cc(C)[nH]c(=O)c1CNC(=O)c1cc(-c2ccc(N3CCN(C(C)C)CC3)nc2)cc2c1cnn2C(C)C [UNC1999, reference compound]",60,had no effect,67,had no effect,–,–
unable to alter the levels,2,"Cc1ncsc1-c1ccc(CNC(=O)[C@@H]2C[C@@H](O)CN2C(=O)[C@@H](NC(=O)CCOCCOCCNC(=O)c2ccc(-c3cnc(NCc4ccco4)n4cnnc34)cc2)C(C)(C)C)cc1 [UNC6845, (2S,4R)-1-((S)-13-(tert-butyl)-1-(4-(5-((furan-2-ylmethyl)amino)-[1,2,4]triazolo[4,3-c]pyrimidin-8-yl)phenyl)-1,11-dioxo-5,8-dioxa-2,12-diazatetradecan-14-oyl)-4-hydroxy-N-(4-(4-methylthiazol-5-yl)benzyl)pyrrolidine-2-carboxamide]",–,–,–,–,unable to alter the levels,–
unable to alter the levels,14,"Cc1ncsc1-c1ccc(CNC(=O)[C@@H]2C[C@@H](O)CN2C(=O)[C@@H](NC(=O)COCCOCCOCCNC(=O)c2ccc(-c3cnc(NCc4ccco4)n4cnnc34)cc2)C(C)(C)C)cc1 [UNC6846, (2S,4R)-1-((S)-15-(tert-butyl)-1-(4-(5-((furan-2-ylmethyl)amino)-[1,2,4]triazolo[4,3-c]pyrimidin-8-yl)phenyl)-1,13-dioxo-5,8,11-trioxa-2,14-diazahexadecan-16-oyl)-4-hydroxy-N-(4-(4-methylthiazol-5-yl)benzyl)pyrrolidine-2-carboxamide]",–,–,–,–,unable to alter the levels,–
unable to alter the levels,5,"Cc1ncsc1-c1ccc(CNC(=O)[C@@H]2C[C@@H](O)CN2C(=O)[C@@H](NC(=O)CCOCCOCCOCCOCCNC(=O)c2ccc(-c3cnc(NCc4ccco4)n4cnnc34)cc2)C(C)(C)C)cc1 [UNC6847, (2S,4R)-1-((S)-19-(tert-butyl)-1-(4-(5-((furan-2-ylmethyl)amino)-[1,2,4]triazolo[4,3-c]pyrimidin-8-yl)phenyl)-1,17-dioxo-5,8,11,14-tetraoxa-2,18-diazaicosan-20-oyl)-4-hydroxy-N-(4-(4-methylthiazol-5-yl)benzyl)pyrrolidine-2-carboxamide]",–,–,–,–,unable to alter the levels,–
decrease in the levels,6,"Cc1ncsc1-c1ccc(CNC(=O)[C@@H]2C[C@@H](O)CN2C(=O)[C@@H](NC(=O)CCNC(=O)c2ccc(-c3cnc(NCc4ccco4)n4cnnc34)cc2)C(C)(C)C)cc1 [UNC6851, (2S,4R)-1-((S)-2-(3-(4-(5-((furan-2-ylmethyl)amino)-[1,2,4]triazolo[4,3-c]pyrimidin-8-yl)benzamido)propanamido)-3,3-dimethylbutanoyl)-4-hydroxy-N-(4-(4-methylthiazol-5-yl)benzyl)pyrrolidine-2-carboxamide]",–,–,–,–,decrease in the levels,–
significant degradation was not observed,8,"Cc1ncsc1-c1ccc(CNC(=O)[C@@H]2C[C@@H](O)CN2C(=O)[C@@H](NC(=O)CCCCNC(=O)c2ccc(-c3cnc(NCc4ccco4)n4cnnc34)cc2)C(C)(C)C)cc1 [UNC6853, (2S,4R)-1-((S)-2-(5-(4-(5-((furan-2-ylmethyl)amino)-[1,2,4]triazolo[4,3-c]pyrimidin-8-yl)benzamido)pentanamido)-3,3-dimethylbutanoyl)-4-hydroxy-N-(4-(4-methylthiazol-5-yl)benzyl)pyrrolidine-2-carboxamide]",–,–,–,–,significant degradation was not observed,–
–,–,"Cc1ncsc1-c1ccc(CNC(=O)[C@@H]2C[C@H](O)CN2C(=O)[C@@H](NC(=O)CCCNC(=O)c2ccc(-c3cnc(NCc4ccco4)n4cnnc34)cc2)C(C)(C)C)cc1 [UNC7043, (2S,4S)-1-((S)-2-(4-(4-(5-((furan-2-ylmethyl)amino)-[1,2,4]triazolo[4,3-c]pyrimidin-8-yl)benzamido)butanamido)-3,3-dimethylbutanoyl)-4-hydroxy-N-(4-(4-methylthiazol-5-yl)benzyl)pyrrolidine-2-carboxamide]",–,–,–,–,–,"SUZ12 degradation (western blot) ([9]; 10 μM for 24 hrs): did not degrade; EED levels (western blot) ([10]; DB cells, 10 μM for 24 hours): did not affect the levels; effect on cell proliferation [11]: had no effect on cell proliferation; EED degradation (western blot) ([2]; HeLa cells, 10 μM for 24 hrs): did not degrade; SUZ12 levels (western blot) ([14]; DB cells, 10 μM for 24 hours): did not affect the levels; effect on cell proliferation [15]: had no effect on cell proliferation; EZH2 degradation (western blot) ([5]; 10 μM for 24 hrs): did not degrade; EZH2 levels (western blot) ([18]; 10 μM for 24 hours): did not affect the levels"

Structure (SMILES),EED levels (Jess) [6],loss in potency compared to EED226 [8] [fold],H3K27me3 reduced [1] [%],EED protein levels ([2]; HeLa cells),"viability at 12 days, 3 μM [3] [%]",EZH2 protein levels [5],EZH2 levels (Jess) [7],other results
"Cc1ncsc1-c1ccc(CNC(=O)[C@@H]2C[C@@H](O)CN2C(=O)[C@@H](NC(=O)CCCNC(=O)c2ccc(-c3cnc(NCc4ccco4)n4cnnc34)cc2)C(C)(C)C)cc1 [UNC6852, (2S,4R)-1-((S)-2-(4-(4-(5-((furan-2-ylmethyl)amino)-[1,2,4]triazolo[4,3-c]pyrimidin-8-yl)benzamido)butanamido)-3,3-dimethylbutanoyl)-4-hydroxy-N-(4-(4-methylthiazol-5-yl)benzyl)pyrrolidine-2-carboxamide]",decrease in the levels,5.5,51,decrease in protein levels,95,decrease in protein levels,decrease in the levels,"Dmax SUZ12 (maximal degradation) ([9]; western blot): 22%; Dmax ([10]; DB, read-out: Dmax EED): 94%; DC50 ([10]; read-out: DC50 EED, DB cells, 24 hours): 610 ± 180 nM; effect on cell proliferation [11]: robust anti-proliferative effects; loss of H3K27me3 [12]: 71%; H3K27me3 levels after 96 hours ([1]; 96 hours of treatment): further decrease in H3K27me3 levels; EED degradation ([2]; HeLa cells, 5 μM, 24 hours, western blot): 80%; Dmax at 30 µM ([2]; HeLa, read-out: Dmax EED (maximal degradation)): 92%; degradation of PRC2 subunits [13]: degradation of all three PRC2 subunits; Dmax SUZ12 ([14]; DB cells): 82%; maximal degradation of SUZ12 in DB cells relative to HeLa cells ([14]; DB vs HeLa): 3.7 fold; EC50 ([14]; read-out: half maximal degradation concentration SUZ12, DB cells, 24 hours): 590 ± 170 nM; effect on cell proliferation [15]: robust anti-proliferative effects; EZH2 degradation ([5]; 5 μM, 24 hours, western blot): 76%; Dmax EZH2 (maximal degradation) ([5]; % degradation at 30 μM after 24 hours): 75%; SUZ12 degradation (proteomics) [16]: 21%; SUZ12 log2 fold change (treated/DMSO treated) [16]: −0.34; cellular toxicity [17]: no cellular toxicity was observed; Dmax EZH2/EZH2^Y641N [18]: 96%; DC50 ([18]; read-out: DC50 EZH2/EZH2^Y641N, 24 hours): 670 ± 240 nM"
